Test results from ChEMBL document CHEMBL3351843, “Noncovalent fluorescent probes of human immuno- and constitutive proteasomes” (J Med Chem, 2014).
The source made the active and inactive calls. The calls are words filed in the database; no cut-off is given here.

How the values were obtained:
[1] = Inhibition of trypsin-like activity of human inducible 20S immunoproteasome incubated for 15 mins before fluorogenic substrate addition
[2] = Inhibition of chymotrypsin-like activity of human inducible 20S immunoproteasome incubated for 15 mins before fluorogenic substrate addition
[3] = tested on: Proteasome; assay: Reversible inhibition of PA activity of proteasome in HEK293 cells incubated for 1 hr by proteasome Glo cell-based chemiluminescent assay; conditions: Homo sapiens
[4] = tested on: Proteasome; assay: Inhibition of chymotrypsin-like activity of proteasome in HEK293 cells incubated for 1 hr by proteasome Glo cell-based chemiluminescent assay; conditions: Homo sapiens, HEK293, 1 h
[5] = Inhibition of PA activity of human inducible 20S immunoproteasome incubated for 15 mins before fluorogenic substrate addition
[6] = Drug uptake in nucleus of HEK293 cells at 5 uM incubated for 1 hr by DAPI staining based confocal microscopy; assay type: ADME, cell-based; conditions: human, hek293, 1 h
[7] = tested on: HEK293; assay: Reversible inhibition of chymotrypsin-like activity of proteasome in HEK293 cells incubated for 1 hr by proteasome Glo cell-based chemiluminescent assay; conditions: Homo sapiens
[8] = Cytotoxicity against HEK293 cells assessed as cell survival at 5 uM incubated for 1 hr by XTT assay; assay type: cell-based; conditions: human, read-out: Survival
[9] = Inhibition of PA activity of human constitutive 20S proteasome incubated for 15 mins before fluorogenic substrate addition
[10] = Inhibition of trypsin-like activity of human constitutive 20S proteasome incubated for 15 mins before fluorogenic substrate addition
[11] = tested on: Proteasome; assay: Inhibition of trypsin-like activity of proteasome in HEK293 cells incubated for 1 hr by proteasome Glo cell-based chemiluminescent assay; conditions: Homo sapiens, HEK293, 1 h
[12] = tested on: Proteasome; assay: Inhibition of PA activity of proteasome in HEK293 cells incubated for 1 hr by proteasome Glo cell-based chemiluminescent assay; conditions: Homo sapiens, HEK293, 1 h
[13] = Inhibition of chymotrypsin-like activity of human constitutive 20S proteasome incubated for 15 mins before fluorogenic substrate addition
[14] = tested on: Proteasome; assay: Reversible inhibition of trypsin-like activity of proteasome in HEK293 cells incubated for 1 hr by proteasome Glo cell-based chemiluminescent assay; conditions: Homo sapiens
[15] = tested on: HEK293; assay: Drug uptake in HEK293 cells at 5 uM incubated for 1 hr by flow cytometry; assay type: ADME, cell-based; conditions: human, hek293, 1 h

SMILES | IC50 [1] | IC50 [2] | inhibition [3] | IC50 [4] | IC50 [5] | Drug uptake [6] | inhibition [7] | viability at 1 h, 5 µM [8] | IC50 [9] | IC50 [10] | IC50 [11] | IC50 [12] | IC50 [13] | inhibition [14] | Drug uptake [15]
C[C@H](NC(=O)[C@H](Cc1ccc(OCc2ccccc2)cc1)NC(=O)CCCCCNC(=O)c1ccc(-c2c3ccc(=[N+](C)C)cc-3oc3cc(N(C)C)ccc23)c(C(=O)[O-])c1)C(=O)N[C@@H](C[C@]1(O)C(=O)Nc2ccccc21)C(=O)NCc1ccccc1 | 1750 nM | 560 nM | Active | 65 nM | 640 nM | Active | Active | 78.2% | 990 nM | 1240 nM | 521 nM | 402 nM | 480 nM | Active | –
C[C@H](NC(=O)[C@H](Cc1ccc(OCc2ccccc2)cc1)NC(=O)CCCCCNC(=O)CCCCCNC(=O)CCCCCNC(=O)c1ccc(-c2c3ccc(=[N+](C)C)cc-3oc3cc(N(C)C)ccc23)c(C(=O)[O-])c1)C(=O)N[C@@H](C[C@]1(O)C(=O)Nc2ccccc21)C(=O)NCc1ccccc1 | 1730 nM | 670 nM | – | 125 nM | 740 nM | Active | – | 100% | 1370 nM | 1280 nM | 515 nM | 596 nM | 490 nM | – | –
C[C@H](NC(=O)[C@H](Cc1ccc(OCc2ccccc2)cc1)NC(=O)OC(C)(C)C)C(=O)N[C@@H](C[C@]1(O)C(=O)Nc2ccccc21)C(=O)NCc1ccccc1 | 27700 nM | 2530 nM | – | – | 6160 nM | – | – | – | 11500 nM | 7100 nM | – | – | 3200 nM | – | –
C[C@H](NC(=O)[C@H](Cc1ccc(OCc2ccccc2)cc1)NC(=O)c1ccc(-c2c3ccc(=O)cc-3oc3cc(O)ccc23)c(C(=O)O)c1)C(=O)N[C@@H](C[C@]1(O)C(=O)Nc2ccccc21)C(=O)NCc1ccccc1 | 2430 nM | 1490 nM | – | – | 7060 nM | – | – | – | 9520 nM | 1930 nM | – | – | 2590 nM | – | –
COC(=O)CCCCCNC(=O)c1ccc(-c2c3ccc(=[N+](C)C)cc-3oc3cc(N(C)C)ccc23)c(C(=O)[O-])c1 | – | – | – | – | – | – | – | 67.6% | – | – | – | – | – | – | Active
C[C@H](NC(=O)[C@H](Cc1ccc(OCc2ccccc2)cc1)NC(=O)c1ccc(-c2c3ccc(=[N+](C)C)cc-3oc3cc(N(C)C)ccc23)c(C(=O)[O-])c1)C(=O)N[C@@H](C[C@]1(O)C(=O)Nc2ccccc21)C(=O)NCc1ccccc1 | 3530 nM | 420 nM | – | 289 nM | 830 nM | Active | – | 90.1% | 1080 nM | 1630 nM | 2480 nM | 1120 nM | 430 nM | – | Active
